# Laboratory results taken from PMC10712727, “Safety, Tolerability, and Pharmacokinetics of Senaparib, a Novel PARP1/2 Inhibitor, in Chinese Patients With Advanced Solid Tumors: A Phase I Trial” (The Oncologist, 2023).
# System: patients with advanced solid tumors
# Assay: Safety: treatment-emergent and senaparib-related adverse events graded per NCI CTCAE v4.03
# Format: in vivo
# Protocol: This phase I, open-label, multicenter, dose-escalation, and dose-expansion study was conducted at three national clinical institutions in China. […] At baseline, all patients enrolled in the dose-escalation phase had to have at least one evaluable lesion, and those in the dose-expansion period had to have at least one measurable lesion, according to Response Evaluation Criteria in Solid Tumors version 1.1 (RECIST v1.1).[16] Entry to the dose-expansion cohort required the presence of a BRCA mutation, with the exception of patients with ovarian carcinoma, fallopian tube carcinoma, and primary peritoneal carcinoma. Full study eligibility criteria are provided in Supplementary Table S1.
# Dose escalation was conducted using a modified Fibonacci 3 + 3 method (Supplementary Fig. S1).[17] Patients were administered oral senaparib from a planned starting dose of 2 mg once daily (QD), with preliminary dose escalation to 120 mg via nine dose groups, in order of their entry into the study. At a given dose level, each patient received a single dose of senaparib followed by a 7-day washout period. They then entered a continuous dosing period to confirm the safety and PK profile, in which they received senaparib QD from day 1 to day 21 of each 3-week cycle. Progression to the next higher dose required approval from the Data Safety Monitoring Committee (DSMC) upon review of the safety and PK data of the previous dose. A 50-mg twice-daily (BID) dosing group was added (planned enrollment, n = 6 patients) based on a DSMC review of the safety, PK, and efficacy analysis of the completed QD dose groups in the phase I clinical trial of senaparib dose escalation in Australia (NCT03507543), which commenced prior to the start of this trial.
# The dose-expansion period included 3 populations: dose groups in which at least one patient achieved complete response (CR) or partial response (PR) per RECIST v1.1[16] and 1 dose group higher (evaluated for safety), as well as the dose group at the maximum tolerated dose (MTD)/recommended phase II dose (RP2D). Each of these groups included those patients in the respective dose-escalation group plus a planned additional 10 patients (approximately 20 patients in the MTD/RP2D group) with BRCA^mut+ solid tumors (ovarian, breast, or prostate cancer were preferred, and ovarian cancer could be BRCA wild type). Patients received senaparib monotherapy orally QD or BID (50-mg dose only) over each 3-week cycle until disease progression or unacceptable toxicity.
# DLTs were predefined toxicities (Supplementary Table S2) recorded over the 7 days following the single-dose administration of senaparib and during the first treatment cycle (day 1-day 21) for each dose group in the dose-escalation period only. The MTD was defined as the maximum dose at which ≤1/6 patients experienced a DLT. Senaparib PK parameters were derived from blood samples collected from patients after the single administration, and at regular intervals during the first cycle of the dose-escalation and dose-expansion periods. Plasma concentrations of senaparib were determined using high-performance liquid chromatography-tandem mass spectrometry. Tumor response was assessed every 6 weeks per RECIST v1.1,[16] recording objective response rate (ORR), disease control rate (DCR), duration of response (DOR), and progression-free survival (PFS) by dose level for all patients and for those harboring BRCA^mut+ tumors.
smiles,measurement,setting,value
O=C(c1cc(Cn2c(=O)[nH]c(=O)c3c(F)cccc32)ccc1F)N1CCN(c2ncccn2)CC1 [Senaparib],"Blood creatinine increased TRAE, Gr≥3",10 mg QD n = 3,0 n (%)
same,"Hypokalemia TRAE, All",10 mg QD n = 3,0 n (%)
same,"Hypokalemia TRAE, Gr≥3",10 mg QD n = 3,0 n (%)
same,"Nausea TRAE, All",10 mg QD n = 3,0 n (%)
same,"Nausea TRAE, Gr≥3",10 mg QD n = 3,0 n (%)
same,"Neutrophil count decreased TRAE, All",10 mg QD n = 3,0 n (%)
same,"Neutrophil count decreased TRAE, Gr≥3",10 mg QD n = 3,0 n (%)
same,"Platelet count decreased TRAE, All",10 mg QD n = 3,0 n (%)
same,"Platelet count decreased TRAE, Gr≥3",10 mg QD n = 3,0 n (%)
same,"SAEs, events",10 mg QD n = 3,0 n ev
same,"SAEs, patients",10 mg QD n = 3,0 n (%)
same,"TEAE Grade ≥3, events",10 mg QD n = 3,0 n ev
same,"TEAE Grade ≥3, patients",10 mg QD n = 3,0 n (%)
same,"TEAEs leading to death, events",10 mg QD n = 3,0 n ev
same,"TEAEs leading to death, patients",10 mg QD n = 3,0 n (%)
same,"TEAEs leading to dose discontinuation, events",10 mg QD n = 3,0 n ev
same,"TEAEs leading to dose discontinuation, patients",10 mg QD n = 3,0 n (%)
same,"TEAEs leading to dose interruption, events",10 mg QD n = 3,0 n ev
same,"TEAEs leading to dose interruption, patients",10 mg QD n = 3,0 n (%)
same,"TEAEs leading to dose reduction, events",10 mg QD n = 3,0 n ev
same,"TEAEs leading to dose reduction, patients",10 mg QD n = 3,0 n (%)
same,"TRAEs Grade ≥3, events",10 mg QD n = 3,0 n ev
same,"TRAEs Grade ≥3, patients",10 mg QD n = 3,0 n (%)
same,"TRAEs, patients",10 mg QD n = 3,3 (100) n (%)
same,"Vomiting TRAE, All",10 mg QD n = 3,0 n (%)
same,"Vomiting TRAE, Gr≥3",10 mg QD n = 3,0 n (%)
same,"WBC decreased TRAE, All",10 mg QD n = 3,1 (33.3) n (%)
same,"WBC decreased TRAE, Gr≥3",10 mg QD n = 3,0 n (%)
same,"ALT increased TRAE, All",20 mg QD n = 5,0 n (%)
same,"ALT increased TRAE, Gr≥3",20 mg QD n = 5,0 n (%)
same,"AST increased TRAE, All",20 mg QD n = 5,0 n (%)
same,"AST increased TRAE, Gr≥3",20 mg QD n = 5,0 n (%)
same,"Anemia TRAE, All",20 mg QD n = 5,1 (20.0) n (%)
same,"Anemia TRAE, Gr≥3",20 mg QD n = 5,1 (20.0) n (%)
same,"Any TEAE, All",20 mg QD n = 5,5 (100) n (%)
same,"Any TEAE, Gr≥3",20 mg QD n = 5,2 (40.0) n (%)
same,"Any TEAE, events",20 mg QD n = 5,30 n ev
same,"Any TEAE, patients",20 mg QD n = 5,5 (100) n (%)
same,"Any TRAE, All",20 mg QD n = 5,3 (60.0) n (%)
same,"Any TRAE, Gr≥3",20 mg QD n = 5,1 (20.0) n (%)
same,"Appetite decreased TRAE, All",20 mg QD n = 5,0 n (%)
same,"Appetite decreased TRAE, Gr≥3",20 mg QD n = 5,0 n (%)
same,"Asthenia TRAE, All",20 mg QD n = 5,1 (20.0) n (%)
same,"Asthenia TRAE, Gr≥3",20 mg QD n = 5,0 n (%)
same,"Blood bilirubin increased TRAE, All",20 mg QD n = 5,0 n (%)
same,"Blood bilirubin increased TRAE, Gr≥3",20 mg QD n = 5,0 n (%)
same,"Blood creatinine increased TRAE, All",20 mg QD n = 5,1 (20.0) n (%)
same,"Blood creatinine increased TRAE, Gr≥3",20 mg QD n = 5,0 n (%)
same,"Hypokalemia TRAE, All",20 mg QD n = 5,1 (20.0) n (%)
same,"Hypokalemia TRAE, Gr≥3",20 mg QD n = 5,0 n (%)
same,"Nausea TRAE, All",20 mg QD n = 5,1 (20.0) n (%)
same,"Nausea TRAE, Gr≥3",20 mg QD n = 5,0 n (%)
same,"Neutrophil count decreased TRAE, All",20 mg QD n = 5,0 n (%)
same,"Neutrophil count decreased TRAE, Gr≥3",20 mg QD n = 5,0 n (%)
same,"Platelet count decreased TRAE, All",20 mg QD n = 5,1 (20.0) n (%)
same,"Platelet count decreased TRAE, Gr≥3",20 mg QD n = 5,0 n (%)
same,"SAEs, events",20 mg QD n = 5,1 n ev
same,"SAEs, patients",20 mg QD n = 5,1 (20.0) n (%)
same,"TEAE Grade ≥3, events",20 mg QD n = 5,3 n ev
same,"TEAE Grade ≥3, patients",20 mg QD n = 5,2 (40.0) n (%)
same,"TEAEs leading to death, events",20 mg QD n = 5,1 n ev
same,"TEAEs leading to death, patients",20 mg QD n = 5,1 (20.0) n (%)
same,"TEAEs leading to dose discontinuation, events",20 mg QD n = 5,2 n ev
same,"TEAEs leading to dose discontinuation, patients",20 mg QD n = 5,2 (40.0) n (%)
same,"TEAEs leading to dose interruption, events",20 mg QD n = 5,1 n ev
same,"TEAEs leading to dose interruption, patients",20 mg QD n = 5,1 (20.0) n (%)
same,"TEAEs leading to dose reduction, events",20 mg QD n = 5,0 n ev
same,"TEAEs leading to dose reduction, patients",20 mg QD n = 5,0 n (%)
same,"TRAEs Grade ≥3, events",20 mg QD n = 5,1 n ev
same,"TRAEs Grade ≥3, patients",20 mg QD n = 5,1 (20.0) n (%)
same,"TRAEs, events",20 mg QD n = 5,15 n ev
same,"TRAEs, patients",20 mg QD n = 5,3 (60.0) n (%)
same,"Vomiting TRAE, All",20 mg QD n = 5,0 n (%)
same,"Vomiting TRAE, Gr≥3",20 mg QD n = 5,0 n (%)
same,"WBC decreased TRAE, All",20 mg QD n = 5,1 (20.0) n (%)
same,"WBC decreased TRAE, Gr≥3",20 mg QD n = 5,0 n (%)
same,"ALT increased TRAE, All",40 mg QD n = 3,0 n (%)
same,"ALT increased TRAE, Gr≥3",40 mg QD n = 3,0 n (%)
same,"AST increased TRAE, All",40 mg QD n = 3,0 n (%)
same,"AST increased TRAE, Gr≥3",40 mg QD n = 3,0 n (%)
same,"Anemia TRAE, All",40 mg QD n = 3,1 (33.3) n (%)
same,"Anemia TRAE, Gr≥3",40 mg QD n = 3,0 n (%)
same,"Any TEAE, All",40 mg QD n = 3,3 (100) n (%)
same,"Any TEAE, Gr≥3",40 mg QD n = 3,0 n (%)
same,"Any TEAE, events",40 mg QD n = 3,7 n ev
same,"Any TEAE, patients",40 mg QD n = 3,3 (100) n (%)
same,"Any TRAE, All",40 mg QD n = 3,3 (100) n (%)
same,"Any TRAE, Gr≥3",40 mg QD n = 3,0 n (%)
same,"Appetite decreased TRAE, All",40 mg QD n = 3,0 n (%)
same,"Appetite decreased TRAE, Gr≥3",40 mg QD n = 3,0 n (%)
same,"Asthenia TRAE, All",40 mg QD n = 3,1 (33.3) n (%)
same,"Asthenia TRAE, Gr≥3",40 mg QD n = 3,0 n (%)
same,"Blood bilirubin increased TRAE, All",40 mg QD n = 3,0 n (%)
same,"Blood bilirubin increased TRAE, Gr≥3",40 mg QD n = 3,0 n (%)
same,"Blood creatinine increased TRAE, All",40 mg QD n = 3,1 (33.3) n (%)
same,"Blood creatinine increased TRAE, Gr≥3",40 mg QD n = 3,0 n (%)
same,"Hypokalemia TRAE, All",40 mg QD n = 3,0 n (%)
same,"Hypokalemia TRAE, Gr≥3",40 mg QD n = 3,0 n (%)
same,"Nausea TRAE, All",40 mg QD n = 3,0 n (%)
same,"Nausea TRAE, Gr≥3",40 mg QD n = 3,0 n (%)
same,"Neutrophil count decreased TRAE, All",40 mg QD n = 3,0 n (%)
same,"Neutrophil count decreased TRAE, Gr≥3",40 mg QD n = 3,0 n (%)
same,"Platelet count decreased TRAE, All",40 mg QD n = 3,0 n (%)
same,"Platelet count decreased TRAE, Gr≥3",40 mg QD n = 3,0 n (%)
same,"SAEs, events",40 mg QD n = 3,0 n ev
same,"SAEs, patients",40 mg QD n = 3,0 n (%)
same,"TEAE Grade ≥3, events",40 mg QD n = 3,0 n ev
same,"TEAE Grade ≥3, patients",40 mg QD n = 3,0 n (%)
same,"TEAEs leading to death, events",40 mg QD n = 3,0 n ev
same,"TEAEs leading to death, patients",40 mg QD n = 3,0 n (%)
same,"TEAEs leading to dose discontinuation, events",40 mg QD n = 3,0 n ev
same,"TEAEs leading to dose discontinuation, patients",40 mg QD n = 3,0 n (%)
same,"TEAEs leading to dose interruption, events",40 mg QD n = 3,0 n ev
same,"TEAEs leading to dose interruption, patients",40 mg QD n = 3,0 n (%)
same,"TEAEs leading to dose reduction, events",40 mg QD n = 3,0 n ev
same,"TEAEs leading to dose reduction, patients",40 mg QD n = 3,0 n (%)
